Key:
[1] = 318.15 K; 101.33 kPa; Liquid; Vibrating tube method
[2] = refractive index (Na D-line) (dimensionless); conditions: 318.15 K; 101.33 kPa; Liquid; Standard Abbe refractometry
[3] = excess molar enthalpy (molar enthalpy of mixing); xn = mol fraction of the nth substance listed; conditions: 318.15 K, 101.3 kPa, Liquid
[4] = xn = mol fraction of the nth substance listed; conditions: 318.15 K, 101.3 kPa, Liquid

CCCCOC(C)=O [butyl ethanoate]
Conditions | mass density [kg/m3] | refractive index
[1] | 855.39 | –
[2] | – | 1.3825

CCOC(C)=O [ethyl acetate]
Conditions | mass density [kg/m3] | refractive index
[1] | 869.54 | –
[2] | – | 1.3597

CCCCCCCCCCCCCCCCC [heptadecane]
Conditions | mass density [kg/m3] | refractive index
[1] | 760.8 | –
[2] | – | 1.4268

CCCCCCC [heptane]
Conditions | mass density [kg/m3] | refractive index
[1] | 662.04 | –
[2] | – | 1.3748

COC(C)=O [methyl ethanoate]
Conditions | mass density [kg/m3] | refractive index
[1] | 900.1 | –
[2] | – | 1.349

CCCCCCCCC [nonane]
Conditions | mass density [kg/m3] | refractive index
[1] | 698.06 | –
[2] | – | 1.3939

CCCCCCCCCCCCCCC [pentadecane]
Conditions | mass density [kg/m3] | refractive index
[1] | 750.9 | –
[2] | – | 1.4212

CCCCCOC(C)=O [pentyl ethanoate]
Conditions | mass density [kg/m3] | refractive index
[1] | 852.93 | –
[2] | – | 1.391

CCCOC(C)=O [propyl ethanoate]
Conditions | mass density [kg/m3] | refractive index
[1] | 859.78 | –
[2] | – | 1.3721

CCCCCCCCCCCCC [tridecane]
Conditions | mass density [kg/m3] | refractive index
[1] | 738.34 | –
[2] | – | 1.4155

CCCCCCCCCCCCC [tridecane] + CCCOC(C)=O
Conditions | excess molar enthalpy [kcal/mol] | excess molar volume [m3/mol]
[3], x2 = 0.087 | 0.103 | –
[3], x2 = 0.1659 | 0.187 | –
[3], x2 = 0.2413 | 0.26 | –
[3], x2 = 0.3093 | 0.312 | –
[3], x2 = 0.3709 | 0.349 | –
[3], x2 = 0.4257 | 0.372 | –
[3], x2 = 0.477 | 0.386 | –
[3], x2 = 0.5193 | 0.39 | –
[3], x2 = 0.5602 | 0.391 | –
[3], x2 = 0.6296 | 0.379 | –
[3], x2 = 0.6706 | 0.367 | –
[3], x2 = 0.716 | 0.346 | –
[3], x2 = 0.7628 | 0.317 | –
[3], x2 = 0.809 | 0.272 | –
[3], x2 = 0.8594 | 0.218 | –
[3], x2 = 0.9097 | 0.158 | –
[3], x2 = 0.9585 | 0.0781 | –
[4], x2 = 0.1139 | – | 4.77e-07
[4], x2 = 0.1844 | – | 7.09e-07
[4], x2 = 0.2748 | – | 9.32e-07
[4], x2 = 0.3425 | – | 1.072e-06
[4], x2 = 0.4123 | – | 1.16e-06
[4], x2 = 0.4772 | – | 1.205e-06
[4], x2 = 0.5337 | – | 1.232e-06
[4], x2 = 0.5864 | – | 1.216e-06
[4], x2 = 0.6311 | – | 1.183e-06
[4], x2 = 0.6791 | – | 1.139e-06
[4], x2 = 0.722 | – | 1.069e-06
[4], x2 = 0.7535 | – | 1.012e-06
[4], x2 = 0.7862 | – | 9.31e-07
[4], x2 = 0.8631 | – | 6.98e-07
[4], x2 = 0.9199 | – | 4.58e-07
[4], x2 = 0.9642 | – | 2.27e-07

CCCCCCCCCCCCC [tridecane] + CCOC(C)=O
Conditions | excess molar enthalpy [kcal/mol] | excess molar volume [m3/mol]
[3], x2 = 0.0838 | 0.122 | –
[3], x2 = 0.1616 | 0.217 | –
[3], x2 = 0.2388 | 0.302 | –
[3], x2 = 0.3097 | 0.371 | –
[3], x2 = 0.3743 | 0.42 | –
[3], x2 = 0.4307 | 0.449 | –
[3], x2 = 0.4842 | 0.467 | –
[3], x2 = 0.532 | 0.478 | –
[3], x2 = 0.5728 | 0.479 | –
[3], x2 = 0.6188 | 0.474 | –
[3], x2 = 0.6556 | 0.463 | –
[3], x2 = 0.6946 | 0.449 | –
[3], x2 = 0.7336 | 0.427 | –
[3], x2 = 0.7755 | 0.396 | –
[3], x2 = 0.8179 | 0.354 | –
[3], x2 = 0.8605 | 0.3 | –
[3], x2 = 0.9015 | 0.239 | –
[3], x2 = 0.9432 | 0.161 | –
[3], x2 = 0.9761 | 0.0749 | –
[4], x2 = 0.1246 | – | 6.09e-07
[4], x2 = 0.2249 | – | 9.81e-07
[4], x2 = 0.3076 | – | 1.215e-06
[4], x2 = 0.3854 | – | 1.386e-06
[4], x2 = 0.4562 | – | 1.461e-06
[4], x2 = 0.5148 | – | 1.515e-06
[4], x2 = 0.5732 | – | 1.518e-06
[4], x2 = 0.6235 | – | 1.506e-06
[4], x2 = 0.6695 | – | 1.462e-06
[4], x2 = 0.7136 | – | 1.402e-06
[4], x2 = 0.7509 | – | 1.322e-06
[4], x2 = 0.775 | – | 1.255e-06
[4], x2 = 0.8123 | – | 1.128e-06
[4], x2 = 0.881 | – | 8.36e-07
[4], x2 = 0.9317 | – | 5.36e-07
[4], x2 = 0.9691 | – | 2.65e-07

CCCCCCCCCCCCC [tridecane] + COC(C)=O
Conditions | excess molar enthalpy [kcal/mol] | excess molar volume [m3/mol]
[3], x2 = 0.1268 | 0.197 | –
[3], x2 = 0.2391 | 0.341 | –
[3], x2 = 0.3316 | 0.448 | –
[3], x2 = 0.4097 | 0.517 | –
[3], x2 = 0.4693 | 0.553 | –
[3], x2 = 0.5214 | 0.571 | –
[3], x2 = 0.5635 | 0.578 | –
[3], x2 = 0.5965 | 0.581 | –
[3], x2 = 0.6319 | 0.574 | –
[3], x2 = 0.6706 | 0.559 | –
[3], x2 = 0.7114 | 0.534 | –
[3], x2 = 0.7533 | 0.504 | –
[3], x2 = 0.7939 | 0.461 | –
[3], x2 = 0.8383 | 0.402 | –
[3], x2 = 0.883 | 0.33 | –
[3], x2 = 0.9274 | 0.242 | –
[3], x2 = 0.9665 | 0.133 | –
[4], x2 = 0.1152 | – | 6.95e-07
[4], x2 = 0.195 | – | 1.093e-06
[4], x2 = 0.2573 | – | 1.364e-06
[4], x2 = 0.3086 | – | 1.537e-06
[4], x2 = 0.357 | – | 1.665e-06
[4], x2 = 0.4302 | – | 1.838e-06
[4], x2 = 0.5045 | – | 1.919e-06
[4], x2 = 0.561 | – | 1.946e-06
[4], x2 = 0.6192 | – | 1.917e-06
[4], x2 = 0.666 | – | 1.849e-06
[4], x2 = 0.7125 | – | 1.753e-06
[4], x2 = 0.7495 | – | 1.651e-06
[4], x2 = 0.8399 | – | 1.288e-06
[4], x2 = 0.8997 | – | 9.51e-07
[4], x2 = 0.9425 | – | 6.18e-07
[4], x2 = 0.9745 | – | 2.97e-07

CCCCCCCCCCC [undecane]
Conditions | mass density [kg/m3] | refractive index
[1] | 721.76 | –
[2] | – | 1.4063

— the NIST ThermoML archive (doi:10.1016/j.jct.2003.11.008)
